# Source: PubChem BioAssay (NCI)
#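 A five-concentration, 48-hour dose response in 96-well plates underlies each endpoint, interpolated linearly between surrounding concentrations. Abbreviation: GI50, concentration required for 50% inhibition of growth. At the TGI there is no net growth.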
# Tests used:
# Test in all cases: NCI tumour cell line growth inhibition, 48 h
# RPMI-8226 leukemia = test system: RPMI-8226 leukemia
# HS 578T breast = test system: HS 578T breast
# SF-268 CNS = test system: SF-268 CNS
# CAKI-1 renal = test system: CAKI-1 renal
# TK-10 renal = test system: TK-10 renal
# OVCAR-4 ovarian = test system: OVCAR-4 ovarian
# PC-3 prostate = test system: PC-3 prostate
# OVCAR-3 ovarian = test system: OVCAR-3 ovarian
# SF-539 CNS = test system: SF-539 CNS
# SK-MEL-5 melanoma = test system: SK-MEL-5 melanoma
# UO-31 renal = test system: UO-31 renal
# MOLT-4 leukemia = test system: MOLT-4 leukemia
# NCI-H226 lung = test system: NCI-H226 lung
# COLO 205 colon = test system: COLO 205 colon
# UACC-257 melanoma = test system: UACC-257 melanoma
# U251 CNS = test system: U251 CNS
# LOX IMVI melanoma = test system: LOX IMVI melanoma
# ACHN renal = test system: ACHN renal
# RXF 393 renal = test system: RXF 393 renal
# MCF7 breast = test system: MCF7 breast
# HL-60(TB) leukemia = test system: HL-60(TB) leukemia
# NCI-H23 lung = test system: NCI-H23 lung
# SNB-19 CNS = test system: SNB-19 CNS
# SN12C renal = test system: SN12C renal
# T-47D breast = test system: T-47D breast
# HOP-62 NSCLC = test system: HOP-62 NSCLC
# MDA-MB-231 breast = test system: MDA-MB-231 breast
# NCI-H460 lung = test system: NCI-H460 lung
# 786-0 renal = test system: 786-0 renal
# A498 renal = test system: A498 renal
# NCI-H522 lung = test system: NCI-H522 lung
# SK-MEL-28 melanoma = test system: SK-MEL-28 melanoma
# OVCAR-8 ovarian = test system: OVCAR-8 ovarian
# OVCAR-5 ovarian = test system: OVCAR-5 ovarian
# HCC-2998 colon = test system: HCC-2998 colon
# HCT-116 colon = test system: HCT-116 colon
# SR leukemia = test system: SR leukemia
# IGROV1 ovarian = test system: IGROV1 ovarian
# A549 NSCLC = test system: A549 NSCLC
# HCT-15 colon = test system: HCT-15 colon
# UACC-62 melanoma = test system: UACC-62 melanoma
# MALME-3M melanoma = test system: MALME-3M melanoma
# K-562 leukemia = test system: K-562 leukemia
# MDA-MB-435 = test system: MDA-MB-435
# SF-295 CNS = test system: SF-295 CNS
# M14 melanoma = test system: M14 melanoma
# NCI/ADR-RES ovarian = test system: NCI/ADR-RES ovarian
# CCRF-CEM leukemia = test system: CCRF-CEM leukemia
# HT29 colon = test system: HT29 colon
# SK-OV-3 ovarian = test system: SK-OV-3 ovarian
# KM12 colon = test system: KM12 colon
# DU-145 prostate = test system: DU-145 prostate
# BT-549 breast = test system: BT-549 breast
# SW-620 colon = test system: SW-620 colon
# SK-MEL-2 melanoma = test system: SK-MEL-2 melanoma
# HOP-92 NSCLC = test system: HOP-92 NSCLC
# SNB-75 CNS = test system: SNB-75 CNS
smiles,measurement,setting,value
CN1CCN(CC#Cc2cccc(C(=O)c3cnn(-c4ccc(F)cc4)c3N)c2)CC1,GI50,RPMI-8226 leukemia,> 25 µM
same,TGI,RPMI-8226 leukemia,> 25 µM
same,GI50,HS 578T breast,> 25 µM
same,TGI,HS 578T breast,> 25 µM
same,GI50,SF-268 CNS,> 25 µM
same,TGI,SF-268 CNS,> 25 µM
same,GI50,CAKI-1 renal,> 25 µM
same,TGI,CAKI-1 renal,> 25 µM
same,GI50,TK-10 renal,> 25 µM
same,TGI,TK-10 renal,> 25 µM
same,GI50,OVCAR-4 ovarian,> 25 µM
same,TGI,OVCAR-4 ovarian,> 25 µM
same,GI50,PC-3 prostate,> 25 µM
same,TGI,PC-3 prostate,> 25 µM
same,GI50,OVCAR-3 ovarian,> 25 µM
same,TGI,OVCAR-3 ovarian,> 25 µM
same,GI50,SF-539 CNS,> 25 µM
same,TGI,SF-539 CNS,> 25 µM
same,GI50,SK-MEL-5 melanoma,> 25 µM
same,TGI,SK-MEL-5 melanoma,> 25 µM
same,GI50,UO-31 renal,> 25 µM
same,TGI,UO-31 renal,> 25 µM
same,GI50,MOLT-4 leukemia,> 25 µM
same,TGI,MOLT-4 leukemia,> 25 µM
same,GI50,NCI-H226 lung,> 25 µM
same,TGI,NCI-H226 lung,> 25 µM
same,GI50,COLO 205 colon,> 25 µM
same,TGI,COLO 205 colon,> 25 µM
same,GI50,UACC-257 melanoma,> 25 µM
same,TGI,UACC-257 melanoma,> 25 µM
same,GI50,U251 CNS,> 25 µM
same,TGI,U251 CNS,> 25 µM
same,GI50,LOX IMVI melanoma,> 25 µM
same,TGI,LOX IMVI melanoma,> 25 µM
same,GI50,ACHN renal,> 25 µM
same,TGI,ACHN renal,> 25 µM
same,GI50,RXF 393 renal,> 25 µM
same,TGI,RXF 393 renal,> 25 µM
same,GI50,MCF7 breast,> 25 µM
same,TGI,MCF7 breast,> 25 µM
same,GI50,HL-60(TB) leukemia,24.6 µM
same,TGI,HL-60(TB) leukemia,> 25 µM
same,GI50,NCI-H23 lung,> 25 µM
same,TGI,NCI-H23 lung,> 25 µM
same,GI50,SNB-19 CNS,> 25 µM
same,TGI,SNB-19 CNS,> 25 µM
same,GI50,SN12C renal,> 25 µM
same,TGI,SN12C renal,> 25 µM
same,GI50,T-47D breast,> 25 µM
same,TGI,T-47D breast,> 25 µM
same,GI50,HOP-62 NSCLC,> 25 µM
same,TGI,HOP-62 NSCLC,> 25 µM
same,GI50,MDA-MB-231 breast,> 25 µM
same,TGI,MDA-MB-231 breast,> 25 µM
same,GI50,NCI-H460 lung,> 25 µM
same,TGI,NCI-H460 lung,> 25 µM
same,GI50,786-0 renal,> 25 µM
same,TGI,786-0 renal,> 25 µM
same,GI50,A498 renal,> 25 µM
same,TGI,A498 renal,> 25 µM
same,GI50,NCI-H522 lung,> 25 µM
same,TGI,NCI-H522 lung,> 25 µM
same,GI50,SK-MEL-28 melanoma,> 25 µM
same,TGI,SK-MEL-28 melanoma,> 25 µM
same,GI50,OVCAR-8 ovarian,> 25 µM
same,TGI,OVCAR-8 ovarian,> 25 µM
same,GI50,OVCAR-5 ovarian,> 25 µM
same,TGI,OVCAR-5 ovarian,> 25 µM
same,GI50,HCC-2998 colon,> 25 µM
same,TGI,HCC-2998 colon,> 25 µM
same,GI50,HCT-116 colon,> 25 µM
same,TGI,HCT-116 colon,> 25 µM
same,GI50,SR leukemia,> 25 µM
same,TGI,SR leukemia,> 25 µM
same,GI50,IGROV1 ovarian,> 25 µM
same,TGI,IGROV1 ovarian,> 25 µM
same,GI50,A549 NSCLC,> 25 µM
same,TGI,A549 NSCLC,> 25 µM
same,GI50,HCT-15 colon,> 25 µM
same,TGI,HCT-15 colon,> 25 µM
same,GI50,UACC-62 melanoma,> 25 µM
same,TGI,UACC-62 melanoma,> 25 µM
same,GI50,MALME-3M melanoma,> 25 µM
same,TGI,MALME-3M melanoma,> 25 µM
same,GI50,K-562 leukemia,> 25 µM
same,TGI,K-562 leukemia,> 25 µM
same,GI50,MDA-MB-435,> 25 µM
same,TGI,MDA-MB-435,> 25 µM
same,GI50,SF-295 CNS,> 25 µM
same,TGI,SF-295 CNS,> 25 µM
same,GI50,M14 melanoma,> 25 µM
same,TGI,M14 melanoma,> 25 µM
same,GI50,NCI/ADR-RES ovarian,> 25 µM
same,TGI,NCI/ADR-RES ovarian,> 25 µM
same,GI50,CCRF-CEM leukemia,> 25 µM
same,TGI,CCRF-CEM leukemia,> 25 µM
same,GI50,HT29 colon,> 19.3 µM
same,TGI,HT29 colon,> 25 µM
same,GI50,SK-OV-3 ovarian,> 25 µM
same,TGI,SK-OV-3 ovarian,> 25 µM
same,GI50,KM12 colon,> 25 µM
same,TGI,KM12 colon,> 25 µM
same,GI50,DU-145 prostate,> 25 µM
same,TGI,DU-145 prostate,> 25 µM
same,GI50,BT-549 breast,> 25 µM
same,TGI,BT-549 breast,> 25 µM
same,GI50,SW-620 colon,> 25 µM
same,TGI,SW-620 colon,> 25 µM
same,GI50,SK-MEL-2 melanoma,> 25 µM
same,TGI,SK-MEL-2 melanoma,> 25 µM
same,GI50,HOP-92 NSCLC,15.2 µM
same,TGI,HOP-92 NSCLC,> 25 µM
same,GI50,SNB-75 CNS,> 25 µM
same,TGI,SNB-75 CNS,> 25 µM
